Data as given in the supplement of paper PMC10331698.
± gives the standard deviation of the averaged measurements.

How the values were obtained:
Assay in all cases: level (log10 ratio to DMSO vehicle control); higher = higher biomarker level / cell amount than vehicle control
Conditions in all cases: in DMSO
[1] = compound: C=CC(=O)OCCC(F)(F)C(F)(F)C(F)(F)C(F)(F)F [2-(Perfluorobutyl)ethyl acrylate]
Procedure: (§1)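 BioMAP Diversity Plus panel of 12 human primary cell co-culture systems (3C, 4H, LPS, SAg, BT, BF4T, BE3C, CASM3C, HDF3CGF, KF3CT, MyoF, Mphg). Compounds were added 1 h before stimulation and left for 24 h (MyoF 48 h; BT 72 h for soluble read-outs or 6 d for IgG). Biomarkers were read by ELISA, cytotoxicity by SRB, PBMC viability and proliferation by Alamar Blue. Each well value was divided by the mean of 8 DMSO control wells on the same plate and log10 transformed; duplicate blinded samples were tested at 4 concentrations.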

[2] = compound: CC(C)(C)C(=O)CC(=O)C(F)(F)C(F)(F)C(F)(F)F [(Heptafluorobutanoyl)pivaloylmethane]
Procedure: as §1

[3] = compound: CNS(=O)(=O)C(F)(F)C(F)(F)C(F)(F)C(F)(F)C(F)(F)C(F)(F)C(F)(F)C(F)(F)F [N-Methylperfluorooctanesulfonamide]
Procedure: as §1

Perfluorooctanamidine = compound: N=C(N)C(F)(F)C(F)(F)C(F)(F)C(F)(F)C(F)(F)C(F)(F)C(F)(F)F [Perfluorooctanamidine]
Procedure: as §1

[4] = compound: O=C(O)C(F)(F)C(F)(F)C(F)(F)C(F)(F)C(F)(F)C(F)(F)C(F)(F)C(F)(F)C(F)(F)C(F)(F)C(F)(F)C(F)(F)C(F)(F)F [Perfluorotetradecanoic acid]
Procedure: as §1

Perfluorohexanoic acid = compound: O=C(O)C(F)(F)C(F)(F)C(F)(F)C(F)(F)C(F)(F)F [Perfluorohexanoic acid]
Procedure: as §1

1H,1H-Heptafluorobutanol = compound: OCC(F)(F)C(F)(F)C(F)(F)F [1H,1H-Heptafluorobutanol]
Procedure: as §1

| Test System | level (log10) ([1]; 6700 nM) | level (log10) ([1]; 20000 nM) | level (log10) ([1]; 60000 nM) | level (log10) ([2]; 6700 nM) | level (log10) ([2]; 20000 nM) | level (log10) ([2]; 60000 nM) | level (log10) ([3]; 6700 nM) | level (log10) ([3]; 20000 nM) | level (log10) ([3]; 60000 nM) | level (log10) (Perfluorooctanamidine; 6700 nM) | level (log10) (Perfluorooctanamidine; 20000 nM) | level (log10) (Perfluorooctanamidine; 60000 nM) | level (log10) ([4]; 6700 nM) | level (log10) ([4]; 20000 nM) | level (log10) (Perfluorohexanoic acid; 6700 nM) | level (log10) (Perfluorohexanoic acid; 20000 nM) | level (log10) (Perfluorohexanoic acid; 60000 nM) | level (log10) (1H,1H-Heptafluorobutanol; 6700 nM) | level (log10) (1H,1H-Heptafluorobutanol; 20000 nM) | level (log10) (1H,1H-Heptafluorobutanol; 60000 nM) |
| --- | --- | --- | --- | --- | --- | --- | --- | --- | --- | --- | --- | --- | --- | --- | --- | --- | --- | --- | --- | --- |
| BE3C:MMP-1 | 0.0175 ± 0.028 | -0.007 ± 0.016 | 0.0705 ± 0.022 | -0.0025 ± 0.0035 | -0.019 ± 0.013 | 0.0095 ± 0.033 | 0.0895 ± 0.03 | 0.0995 ± 0.025 | 0.001 ± 0.054 | 0.0525 ± 0.03 | 0.057 ± 0.044 | 0.262 | 0.015 ± 0.025 | 0.0505 ± 0.059 | -0.0075 ± 0.0064 | 0 ± 0.011 | 0.0275 ± 0.012 | 0.0035 ± 0.0078 | -0.015 ± 0.02 | 0.0025 ± 0.028 |
| HDF3CGF:CXCL9/MIG | -0.0335 ± 0.019 | -0.176 ± 0.064 | -0.498 ± 0.071 | 0.0025 ± 0.012 | 0 ± 0.02 | -0.025 ± 0.033 | -0.0065 ± 0.03 | 0.0105 ± 0.011 | -0.0205 ± 0.011 | 0.0055 ± 0.023 | -0.003 ± 0.018 | 0.018 | 0.0075 ± 0.025 | -0.001 ± 0.0042 | 0.004 ± 0.0099 | 0.001 ± 0.0099 | -0.019 ± 0.034 | 0.0035 ± 0.028 | -0.0005 ± 0.022 | -0.008 ± 0.033 |
| lMphg:M-CSF | -0.0155 ± 0.029 | -0.011 ± 0.028 | -0.001 ± 0.018 | -0.0265 ± 0.039 | -0.027 ± 0.051 | -0.0315 ± 0.032 | -0.046 ± 0.0028 | -0.0305 ± 0.016 | -0.0015 ± 0.021 | -0.0155 ± 0.016 | -0.0015 ± 0.0021 | -0.001 | -0.0065 ± 0.03 | -0.0175 ± 0.015 | 0.0005 ± 0.028 | -0.011 ± 0.028 | -0.023 ± 0.0014 | -0.005 ± 0.017 | 0.0045 ± 0.016 | 0.0125 ± 0.019 |
| MyoF:bFGF | -0.0035 ± 0.0021 | -0.003 ± 0.0042 | 0.02 ± 0.011 | 0.002 ± 0.0028 | 0.0065 ± 0.0035 | 0.021 ± 0.0071 | 0 ± 0.014 | -0.0085 ± 0.033 | 0.005 ± 0.033 | -0.0085 ± 0.032 | -0.0115 ± 0.03 | 0.044 | 0.0075 ± 0.00071 | 0.0315 ± 0.018 | 0.0005 ± 0.005 | -0.0105 ± 0.019 | 0.0005 ± 0.021 | -0.003 ± 0.0042 | 0.0045 ± 0.0078 | 0.01 ± 0.017 |
| HDF3CGF:CXCL8/IL-8 | -0.003 ± 0.011 | 0 ± 0.0028 | -0.007 ± 0.021 | 0.0025 ± 0.0035 | -0.001 ± 0.0099 | -0.0005 ± 0.0035 | -0.0145 ± 0.0035 | -0.0195 ± 0.00071 | -0.0015 ± 0.0035 | 0.006 ± 0.0014 | 0.0135 ± 0.005 | 0.007 | -0.0045 ± 0.012 | 0.008 ± 0.0085 | -0.003 ± 0.0057 | 0.006 ± 0.0014 | 0.005 ± 0.0071 | -0.0025 ± 0.0064 | 0 ± 0.0028 | 0.0015 ± 0.0021 |
| KF3CT:CXCL8/IL-8 | -0.0095 ± 0.021 | -0.003 ± 0.0014 | -0.0105 ± 0.018 | -0.015 ± 0.011 | -0.0165 ± 0.0078 | 0.016 ± 0.0014 | -0.039 ± 0.041 | -0.158 ± 0.037 | -0.106 ± 0.02 | 0.0135 ± 0.021 | 0.0305 ± 0.018 | 0.043 | 0.0005 ± 0.013 | 0.0245 ± 0.025 | -0.005 ± 0.014 | 0.009 ± 0.04 | 0.031 ± 0.013 | -0.02 ± 0.0014 | -0.021 ± 0.0028 | -0.0025 ± 0.016 |
| KF3CT:CD54/ICAM-1 | -0.0085 ± 0.0092 | -0.0245 ± 0.0078 | -0.054 ± 0.0099 | -0.0095 ± 0.011 | -0.0265 ± 0.018 | -0.021 ± 0.0042 | 0.031 ± 0.03 | -0.035 ± 0.014 | 0.018 ± 0.0028 | 0.0055 ± 0.033 | 0.0175 ± 0.022 | 0.064 | -0.003 ± 0.027 | -0.0375 ± 0.015 | 0.0055 ± 0.0064 | -0.002 ± 0.013 | -0.007 ± 0.011 | 0.009 ± 0.0099 | -0.0095 ± 0.0092 | 0.019 ± 0.0014 |
| HDF3CGF:Collagen III | -0.005 ± 0.0014 | -0.0605 ± 0.0021 | -0.127 ± 0.03 | -0.008 ± 0.11 | 0.0535 ± 0.025 | 0.0555 ± 0.018 | -0.102 ± 0.0035 | -0.143 ± 0.011 | -0.092 ± 0.037 | -0.047 ± 0.018 | -0.196 ± 0.045 | -0.172 | -0.114 ± 0.057 | -0.094 ± 0.13 | 0.0515 ± 0.013 | 0.0305 ± 0.0092 | -0.0245 ± 0.071 | -0.0055 ± 0.076 | -0.0285 ± 0.052 | -0.0155 ± 0.044 |
| MyoF:Collagen I | 0.0105 ± 0.016 | 0.01 ± 0.03 | -0.002 ± 0.025 | -0.0165 ± 0.011 | -0.007 ± 0.0099 | 0.0065 ± 0.013 | -0.019 ± 0.0071 | -0.0015 ± 0.023 | 0.0265 ± 0.026 | -0.0005 ± 0.013 | 0.007 ± 0.0085 | 0.047 | 0.0015 ± 0.0078 | 0.0215 ± 0.033 | -0.01 ± 0.0057 | -0.0095 ± 0.0092 | -0.0025 ± 0.011 | -0.01 ± 0.024 | -0.0065 ± 0.022 | -0.0005 ± 0.013 |
| CASM3C:CXCL9/MIG | -0.0005 ± 0.012 | -0.025 ± 0.0071 | -0.121 ± 0.014 | -0.004 ± 0.0014 | -0.0085 ± 0.00071 | 0.006 ± 0.011 | -0.0675 ± 0.026 | -0.086 ± 0.0085 | -0.05 ± 0.045 | -0.005 ± 0.013 | -0.017 ± 0.024 | 0.069 | -0.0375 ± 0.042 | 0.0295 ± 0.057 | 0.008 ± 0.0057 | 0.001 ± 0.0042 | 0.012 ± 0.021 | 0.003 ± 0.0014 | -0.006 ± 0.013 | 0.015 ± 0.044 |
| CASM3C:LDLR | -0.013 ± 0.0099 | -0.0105 ± 0.0021 | 0.01 ± 0.042 | -0.004 ± 0.017 | -0.0085 ± 0.0035 | -0.0075 ± 0.018 | 0.002 ± 0.013 | -0.0385 ± 0.059 | 0.0025 ± 0.0092 | 0.012 ± 0.013 | 0.036 ± 0.0085 | 0.108 | -0.0135 ± 0.013 | -0.028 ± 0.014 | 0.001 ± 0.0028 | -0.0065 ± 0.029 | -0.0025 ± 0.039 | -0.0025 ± 0.0035 | 0.012 ± 0.011 | 0.006 ± 0.03 |
| lMphg:IL-1alpha | -0.026 ± 0.028 | -0.033 ± 0.0028 | 0.0145 ± 0.04 | 0.0265 ± 0.042 | 0.0005 ± 0.0021 | 0.0175 ± 0.013 | 0.075 ± 0.017 | 0.132 ± 0.035 | 0.15 ± 0.013 | -0.011 ± 0.024 | -0.004 ± 0.044 | 0.027 | 0.021 ± 0.068 | 0.004 ± 0.05 | 0.0035 ± 0.04 | 0 ± 0.011 | -0.009 ± 0.033 | 0.0275 ± 0.04 | 0.008 ± 0.018 | 0.015 ± 0.0014 |
| CASM3C:HLA-DR | -0.0245 ± 0.025 | -0.017 ± 0.014 | -0.0205 ± 0.011 | 0.011 ± 0.0014 | 0.0005 ± 0.0092 | 0.0255 ± 0.0035 | -0.0525 ± 0.039 | -0.0875 ± 0.011 | -0.0315 ± 0.079 | -0.0335 ± 0.016 | -0.0655 ± 0.011 | -0.022 | -0.0195 ± 0.0078 | -0.022 ± 0.073 | 0.004 ± 0.0099 | -0.004 ± 0.0057 | -0.004 ± 0.011 | 0.015 ± 0.0057 | -0.004 ± 0.0028 | 0.011 ± 0.0028 |
| KF3CT:PAI-I | -0.017 ± 0.0071 | -0.005 ± 0.023 | -0.008 ± 0.0085 | -0.0065 ± 0.019 | -0.0025 ± 0.016 | 0.004 ± 0.02 | 0.0465 ± 0.0078 | 0.101 ± 0.0071 | 0.0425 ± 0.028 | -0.001 ± 0.033 | -0.017 ± 0.044 | -0.008 | -0.015 ± 0.0014 | 0 ± 0.0071 | -0.0075 ± 0.00071 | -0.0175 ± 0.0035 | -0.0085 ± 0.00071 | 0.0075 ± 0.0021 | -0.0005 ± 0.0035 | -0.0045 ± 0.0021 |
| CASM3C:M-CSF | -0.0165 ± 0.019 | -0.0355 ± 0.022 | -0.021 ± 0.044 | 0.002 ± 0.017 | -0.0165 ± 0.013 | -0.016 ± 0.014 | 0 ± 0.016 | 0.0105 ± 0.077 | 0.0575 ± 0.042 | -0.0095 ± 0.021 | -0.025 ± 0.028 | 0.034 | 0.006 ± 0.025 | -0.0065 ± 0.043 | -0.0185 ± 0.019 | -0.0125 ± 0.013 | 0.0105 ± 0.0092 | 0.006 ± 0.021 | 0.03 ± 0.041 | 0.038 ± 0.016 |
